Assay results published in US10662156B2, “Guanidine derivative and medical use thereof” (Toray Industries, Inc., priority 2016, dated 2020).

Tested on: oxazolone-induced atopic dermatitis mouse models
Assay: Suppressive effect on auricular hypertrophy in oxazolone-induced atopic dermatitis mouse model
Format: in vivo, BALB/c male mice
Conditions: 30 mg/kg orally twice a day
Experimental: The guanidine derivative (I) or the pharmacologically acceptable salt thereof was evaluated for its exertion of a therapeutic effect on atopic dermatitis, one type of allergic disease, in an in vivo experimental system using oxazolone-induced atopic dermatitis mouse models in accordance with the method described in the literature (Plos One, Vol. 8, No. 7, e6614). Specifically, the evaluation was conducted by verifying the suppressive effect of the compound on auricular hypertrophy by using, as an index, the thickness of the auricle increased with the progression of symptoms in oxazolone-induced atopic dermatitis models.
Seven-week-old BALB/c male mice (Charles River Laboratories Japan, Inc.) were preliminarily bred and then used at the age of 8 weeks. […]
The thickness of the auricle before oxazolone administration (before induction) at the date of induction and the thickness of the auricle at post-induction day 28 were measured using a digital micrometer (Mitsutoyo Corp.), and the change therebetween (the thickness of the auricle at post-induction day 28—the thickness of the auricle before induction) was used as an index for drug efficacy evaluation. […]

## Cl.N/C(=N\S(=O)(=O)c1ccccc1)NCc1cnc(-c2ccc(Cl)cc2)c(-c2ccc(Cl)cc2)c1 [Compound of Example 2, N-(amino(((5,6-bis(4-chlorophenyl)pyridin-3-yl)methyl)amino)methylene)benzenesulfonamide Hydrochloride]
post-induction days 21 to 27, post-induction day 28 vs before induction, vehicle group 515 μm
  change in the thickness of the auricle (increase): 419 μm
T test, P<0.05
  change in the thickness of the auricle compared to the vehicle administration group (in words): statistically significantly decreased
